From patent US20250186541A1, “DLL3 TARGETING PEPTIDES AND CONSTRUCTS THEREOF” (MARIANA ONCOLOGY INC., priority 2023, published 2025)
Bridge positions count the residues as written; N and C are the ends. Square brackets hold non-standard residues; d marks the D form. Peptide text beside a SMILES is read from it. * marks the point of attachment. DOTA = O=C(O)CN1CCN(CC(=O)O)CCN(CC(=O)*)CCN(CC(=O)O)CC1; Lys(Me3) = C[N+](C)(C)CCCC[C@H](N)C(=O)O; 1Nal = N[C@@H](Cc1cccc2ccccc12)C(=O)O; NMeQ = CN[C@@H](CCC(N)=O)C(=O)O; Chg = N[C@H](C(=O)O)C1CCCCC1; Tle = CC(C)(C)[C@H](N)C(=O)O; αMeP = C[C@@]1(C(=O)O)CCCN1; Nle = CCCC[C@H](N)C(=O)O; Ahx = NCCCCCC(=O)O

Target: T1, human DLL3 (Homo sapiens, UniProt Q9NYJ7)
T1 construct: biotin (biotinylated)
T1 sequence (Q9NYJ7 27-618): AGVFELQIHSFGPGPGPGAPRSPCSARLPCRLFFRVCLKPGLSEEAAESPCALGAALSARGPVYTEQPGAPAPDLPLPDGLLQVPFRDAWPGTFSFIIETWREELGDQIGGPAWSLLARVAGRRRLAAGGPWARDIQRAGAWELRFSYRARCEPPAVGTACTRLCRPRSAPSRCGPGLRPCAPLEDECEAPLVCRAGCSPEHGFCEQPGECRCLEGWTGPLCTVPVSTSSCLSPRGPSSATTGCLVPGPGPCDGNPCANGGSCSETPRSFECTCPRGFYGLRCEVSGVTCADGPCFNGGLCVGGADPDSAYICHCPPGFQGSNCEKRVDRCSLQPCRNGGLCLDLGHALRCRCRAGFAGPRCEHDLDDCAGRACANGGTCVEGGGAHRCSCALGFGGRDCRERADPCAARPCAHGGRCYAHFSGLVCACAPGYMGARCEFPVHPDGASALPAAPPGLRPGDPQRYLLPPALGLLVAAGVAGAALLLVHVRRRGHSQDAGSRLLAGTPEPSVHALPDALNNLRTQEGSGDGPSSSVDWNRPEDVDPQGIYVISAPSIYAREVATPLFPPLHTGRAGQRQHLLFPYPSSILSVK
Experiment: Affinity determination by Surface Plasmon Resonance (SPR), Biacore, 1:1 binding model
Details: biotinylated human DLL3 on streptavidin chip, 25° C.; NB = nonbinding
Method in brief: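 SPR with biotinylated human DLL3 captured on a streptavidin chip, with a reference surface subtracted. Samples were injected at several concentrations at 100 μL/min in phosphate buffer with 137 mM NaCl, 2.7 mM KCl, 0.05% P20 and 2% DMSO. Kinetic and affinity constants came from a 1:1 binding fit.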

Compared with `CCCC[C@@H]1NC(=O)[C@H](Cc2c[nH]c3ccccc23)NC(=O)[C@@H](NC(=O)[C@H](CC(=O)O)NC(=O)[C@H](CO)NC(=O)[C@H](CCSC)NC(C)=O)CSSC[C@@H](C(=O)N2CCC[C@H]2C(=O)N[C@@H](Cc2ccccc2)C(=O)N[C@@H](CC(=O)O)C(=O)N[C@H](CCCCNC(=O)CN2CCN(CC(=O)O)CCN(CC(=O)O)CCN(CC(=O)O)CC2)C(N)=O)NC(=O)[C@H](CC(N)=O)NC(=O)[C@H](Cc2c[nH]c3ccccc23)NC(=O)[C@H](CCC(N)=O)NC1=O` [compound 68, Ac-M-S-D-C(3)-W-(Nle)-Q-W-N-C(3)-P-F-D-D-Lys(DOTA)-CONH2] (Ac-MSDCW[Nle]QWNCPFD[dK](DOTA)-NH2; disulfide 4-10), `CCCC[C@H](NC(C)=O)C(=O)N[C@@H](CO)C(=O)N[C@@H](CC(=O)O)C(=O)N[C@H]1CSSC[C@@H](C(=O)N2CCC[C@H]2C(=O)N[C@@H](Cc2ccccc2)C(=O)N[C@@H](CC(=O)O)C(=O)N[C@H](CCCCNC(=O)CN2CCN(CC(=O)O)CCN(CC(=O)O)CCN(CC(=O)O)CC2)C(N)=O)NC(=O)[C@H](CC(N)=O)NC(=O)[C@H](Cc2c[nH]c3ccccc23)NC(=O)[C@H](CCC(N)=O)NC(=O)[C@H](CC(C)C)NC(=O)[C@H](Cc2c[nH]c3ccccc23)NC1=O` [compound 79, Ac-Nle-S-D-C(3)-W-L-Q-W-N-C(3)-P-F-D-D-Lys(DOTA)-CONH2] (Ac-[Nle]SDCWLQWNCPFD[dK](DOTA)-NH2; disulfide 4-10) is 1.8-fold lower in Kd: 15.9 nM for the first, 9 nM for the second. The second binds more tightly here.

First: CC(C)C[C@@H]1NC(=O)[C@H](Cc2c[nH]c3ccccc23)NC(=O)[C@@H](NC(=O)[C@H](CC(=O)O)NC(=O)[C@H](CO)NC(=O)CCCCCNC(=O)CN2CCN(CC(=O)O)CCN(CC(=O)O)CCN(CC(=O)O)CC2)CSSC[C@@H](C(=O)N2CCC[C@H]2C(=O)N[C@@H](Cc2ccccc2)C(=O)N[C@@H](CC(=O)O)C(N)=O)NC(=O)[C@H](CC(N)=O)NC(=O)[C@H](Cc2c[nH]c3ccccc23)NC(=O)[C@H](CCC(N)=O)NC1=O [compound 72, DOTA-Ahx-S-D-C(3)-W-L-Q-W-N-C(3)-P-F-D-CONH2] ({DOTA-Ahx}-SDCWLQWNCPFD-NH2; disulfide 3-9)
Second: CC(C)C[C@@H]1NC(=O)[C@H](Cc2c[nH]c3ccccc23)NC(=O)[C@@H](NC(=O)[C@H](CC(=O)O)NC(=O)[C@H](CO)NC(=O)CCCCCNC(=O)CN2CCN(CC(=O)O)CCN(CC(=O)O)CCN(CC(=O)O)CC2)CSSC[C@@H](C(=O)N2CCC[C@H]2C(=O)N[C@@H](Cc2ccccc2)C(=O)N[C@@H](CC(=O)O)C(N)=O)NC(=O)[C@H](CC(N)=O)NC(=O)[C@H](Cc2c[nH]c3ccccc23)NC(=O)[C@H](CCC(N)=O)N(C)C1=O [compound 93, DOTA-Ahx-S-D-C(3)-W-L-(NMe-Gln)-W-N-C(3)-P-F-D-CONH2] ({DOTA-Ahx}-SDCWL[NMeQ]WNCPFD-NH2; disulfide 3-9)
The Kd of the first is lower: 11 nM for the first, > 100 nM for the second.

Compared with `CC(C)C[C@@H]1NC(=O)[C@H](Cc2c[nH]c3ccccc23)NC(=O)[C@@H](NC(=O)[C@H](CC(=O)O)NC(=O)[C@H](CO)NC(=O)CCCCCNC(=O)CN2CCN(CC(=O)O)CCN(CC(=O)O)CCN(CC(=O)O)CC2)CSSC[C@@H](C(=O)N2CCC[C@H]2C(=O)N[C@@H](Cc2ccccc2)C(=O)N[C@@H](CC(=O)O)C(=O)N[C@H](CCCCN)C(N)=O)NC(=O)[C@H](CC(N)=O)NC(=O)[C@H](Cc2c[nH]c3ccccc23)NC(=O)[C@H](CCC(N)=O)NC1=O` [compound 73, DOTA-Ahx-S-D-C(3)-W-L-Q-W-N-C(3)-P-F-D-(D-Lys)-NH2] ({DOTA-Ahx}-SDCWLQWNCPFD[dK]-NH2; disulfide 3-9), `CC(=O)NCCCCCC(=O)N[C@@H](CO)C(=O)N[C@@H](CC(=O)O)C(=O)N[C@H]1CSSC[C@@H](C(=O)N2CCC[C@H]2C(=O)N[C@@H](Cc2ccccc2)C(=O)N[C@@H](CC(=O)O)C(=O)N[C@H](CCCCNC(=O)CN2CCN(CC(=O)O)CCN(CC(=O)O)CCN(CC(=O)O)CC2)C(N)=O)NC(=O)[C@H](CC(N)=O)NC(=O)[C@H](Cc2c[nH]c3ccccc23)NC(=O)[C@H](CCC(N)=O)NC(=O)[C@H](CC(C)C)NC(=O)[C@H](Cc2c[nH]c3ccccc23)NC1=O` [compound 74, Ac-Ahx-S-D-C(3)-W-L-Q-W-N-C(3)-P-F-D-D-Lys(DOTA)-CONH2] (Ac-[Ahx]SDCWLQWNCPFD[dK](DOTA)-NH2; disulfide 4-10) is lower in Kd: > 100 nM for the first, 9 nM for the second. The second binds more tightly here.

`CC(=O)N[C@H](C(=O)N[C@@H](CO)C(=O)N[C@@H](CC(=O)O)C(=O)N[C@H]1CSSC[C@@H](C(=O)N2CCC[C@H]2C(=O)N[C@@H](Cc2ccccc2)C(=O)N[C@@H](CC(=O)O)C(=O)N[C@H](CCCCNC(=O)CN2CCN(CC(=O)O)CCN(CC(=O)O)CCN(CC(=O)O)CC2)C(N)=O)NC(=O)[C@H](CC(N)=O)NC(=O)[C@H](Cc2c[nH]c3ccccc23)NC(=O)[C@H](CCC(N)=O)NC(=O)[C@H](CC(C)C)NC(=O)[C@H](Cc2c[nH]c3ccccc23)NC1=O)C(C)(C)C` [compound 76, Ac-tBuGly-S-D-C(3)-W-L-Q-W-N-C(3)-P-F-D-D-Lys(DOTA)-CONH2] (Ac-[Tle]SDCWLQWNCPFD[dK](DOTA)-NH2; disulfide 4-10) and `CC(=O)N[C@@H](CO)C(=O)N[C@@H](CO)C(=O)N[C@@H](CC(=O)O)C(=O)N[C@H]1CSSC[C@@H](C(=O)N2CCC[C@H]2C(=O)N[C@@H](Cc2ccccc2)C(=O)N[C@@H](CC(=O)O)C(=O)N[C@H](CCCCNC(=O)CN2CCN(CC(=O)O)CCN(CC(=O)O)CCN(CC(=O)O)CC2)C(N)=O)NC(=O)[C@H](CC(N)=O)NC(=O)[C@H](Cc2c[nH]c3ccccc23)NC(=O)[C@H](CCC(N)=O)NC(=O)[C@H](CC(C)C)NC(=O)[C@H](Cc2c[nH]c3ccccc23)NC1=O` [compound 78, Ac-Ser-S-D-C(3)-W-L-Q-W-N-C(3)-P-F-D-D-Lys(DOTA)-CONH2] (Ac-SSDCWLQWNCPFD[dK](DOTA)-NH2; disulfide 4-10) are within 1.5-fold of each other in Kd: 12 nM for the first, 16 nM for the second.

`CC(=O)N[C@@H](Cc1ccccc1)C(=O)N[C@@H](CO)C(=O)N[C@@H](CC(=O)O)C(=O)N[C@H]1CSSC[C@@H](C(=O)N2CCC[C@H]2C(=O)N[C@@H](Cc2ccccc2)C(=O)N[C@@H](CC(=O)O)C(=O)N[C@H](CCCCNC(=O)CN2CCN(CC(=O)O)CCN(CC(=O)O)CCN(CC(=O)O)CC2)C(N)=O)NC(=O)[C@H](CC(N)=O)NC(=O)[C@H](Cc2c[nH]c3ccccc23)NC(=O)[C@H](CCC(N)=O)NC(=O)[C@H](CC(C)C)NC(=O)[C@H](Cc2c[nH]c3ccccc23)NC1=O` [compound 80, Ac-Phe-S-D-C(3)-W-L-Q-W-N-C(3)-P-F-D-D-Lys(DOTA)-CONH2] (Ac-FSDCWLQWNCPFD[dK](DOTA)-NH2; disulfide 4-10) and `CC(=O)N[C@@H](CCC(=O)O)C(=O)N[C@@H](CO)C(=O)N[C@@H](CC(=O)O)C(=O)N[C@H]1CSSC[C@@H](C(=O)N2CCC[C@H]2C(=O)N[C@@H](Cc2ccccc2)C(=O)N[C@@H](CC(=O)O)C(=O)N[C@H](CCCCNC(=O)CN2CCN(CC(=O)O)CCN(CC(=O)O)CCN(CC(=O)O)CC2)C(N)=O)NC(=O)[C@H](CC(N)=O)NC(=O)[C@H](Cc2c[nH]c3ccccc23)NC(=O)[C@H](CCC(N)=O)NC(=O)[C@H](CC(C)C)NC(=O)[C@H](Cc2c[nH]c3ccccc23)NC1=O` [compound 81, Ac-Glu-S-D-C(3)-W-L-Q-W-N-C(3)-P-F-D-D-Lys(DOTA)-CONH2] (Ac-ESDCWLQWNCPFD[dK](DOTA)-NH2; disulfide 4-10) are within 1.5-fold of each other in Kd: 10 nM for the first, 12.3 nM for the second.

`CC(=O)N[C@@H](CCCC[N+](C)(C)C)C(=O)N[C@@H](CO)C(=O)N[C@@H](CC(=O)O)C(=O)N[C@H]1CSSC[C@@H](C(=O)N2CCC[C@H]2C(=O)N[C@@H](Cc2ccccc2)C(=O)N[C@@H](CC(=O)O)C(=O)N[C@H](CCCCNC(=O)CN2CCN(CC(=O)O)CCN(CC(=O)O)CCN(CC(=O)O)CC2)C(N)=O)NC(=O)[C@H](CC(N)=O)NC(=O)[C@H](Cc2c[nH]c3ccccc23)NC(=O)[C@H](CCC(N)=O)NC(=O)[C@H](CC(C)C)NC(=O)[C@H](Cc2c[nH]c3ccccc23)NC1=O` [compound 85, Ac-Lys(Me)3-S-D-C(3)-W-L-Q-W-N-C(3)-P-F-D-D-Lys(DOTA)-CONH2] (Ac-[Lys(Me3)]SDCWLQWNCPFD[dK](DOTA)-NH2; disulfide 4-10) and `CC(=O)N[C@@H](CO)C(=O)N[C@@H](CC(=O)O)C(=O)N[C@H]1CSSC[C@@H](C(=O)N2CCC[C@H]2C(=O)N[C@@H](Cc2ccccc2)C(=O)N[C@@H](CC(=O)O)C(=O)N[C@@H](CCCCNC(=O)CN2CCN(CC(=O)O)CCN(CC(=O)O)CCN(CC(=O)O)CC2)C(N)=O)NC(=O)[C@H](CC(N)=O)NC(=O)[C@H](Cc2c[nH]c3ccccc23)NC(=O)[C@H](CCC(N)=O)NC(=O)[C@H](CC(C)C)NC(=O)[C@H](Cc2c[nH]c3ccccc23)NC1=O` [compound 86, Ac-S-D-C(3)-W-L-Q-W-N-C(3)-P-F-D-[L-Lys(DOTA)]-NH2] (Ac-SDCWLQWNCPFDK(DOTA)-NH2; disulfide 3-9) are within 1.5-fold of each other in Kd: 14 nM for the first, 12.3 nM for the second.

In the case of `CC(=O)N[C@H](C(=O)N[C@@H](CO)C(=O)N[C@@H](CC(=O)O)C(=O)N[C@H]1CSSC[C@@H](C(=O)N2CCC[C@@]2(C)C(=O)N[C@@H](Cc2ccccc2)C(=O)N[C@@H](CC(=O)O)C(=O)N[C@H](CCCCNC(=O)CN2CCN(CC(=O)O)CCN(CC(=O)O)CCN(CC(=O)O)CC2)C(N)=O)NC(=O)[C@H](CC(N)=O)NC(=O)[C@H](Cc2c[nH]c3ccccc23)NC(=O)[C@H](CCC(N)=O)NC(=O)[C@H](CC(C)C)NC(=O)[C@H](Cc2cccc3ccccc23)NC1=O)C1CCCCC1` [compound 95, Ac-(Chg)-S-D-C(3)-(1Nal)-L-Q-W-N-C(3)-(aMe-P)-F-D-D-Lys(DOTA)-CONH2] (Ac-[Chg]SDC[1Nal]LQWNC[αMeP]FD[dK](DOTA)-NH2; disulfide 4-10), the Kd is reported as 0.29 nM.
